# Measured values taken from patent US10251902B2, “Pharmaceutical composition for treating or preventing neuropsychiatric disease, containing flavone-6-C-glucose derivatives as active ingredients” (priority 2013, dated 2019).
# What was measured:
# [1] = tested on: model of memory impairment induced by scopolamine; experiment: Passive avoidance test in scopolamine-induced memory impairment model; assay type: in vivo, ICR mice; conditions: for Main Experiment / Passive Avoidance Learning: scopolamine 1 mg/Kg i.p.; for Main Experiment: latency 24 h after learning; for latency time extended compared to that of the control 2: main experiment, control 2 = scopolamine
# Description: (§1) An experiment was conducted to confirm effects of swertisin or isoorientin, and extracts of Swertia pseudochinensis or Swertia japonica containing the same prepared in Examples 1 to 3 in treating dementia by using a model of memory impairment induced by scopolamine. Detailed method follows.
# (§2) Six-week old ICR mice in about 26 g to 28 g (Orientbio Inc, Republic of Korea) were received water and feed without constraint and adapted for 5 days under an environment having about 23±1° C. of temperature, about 60±10% of humidity and 12-hour light/dark cycle (animal laboratory at College of Pharmacy, Kyung-Hee University), and then used for the experiment.
# An apparatus for measuring passive avoidance reaction was prepared. The apparatus has 2 separated chambers (the first and second chambers) and there is a guillotine-shaped passage that connects the first chamber and the second chamber. The first chamber was maintained brightly by using a light, and the second chamber was maintained darkly. A grid was installed on the floor of the second chamber. The grid generates 0.5 mA of electric shock for 3 seconds when the laboratory animal moved into the dark chamber.
# About 30 minutes later, 1 mg/Kg of scopolamine, which was dissolved in distilled water, was intraperitoneally administered to the drug administration groups 1 to 4 and controls 1 and 2 (Ebert, U. et al., Eur. J. Clin. Invest., 28, pp 944-949, 1998), and 0.9% of saline solution was intraperitoneally administered to the control 3. After 30 minutes, passive avoidance learning was conducted on the drug administration groups 1-4 and controls 1-3. In detail, the mice were located in the first chamber (i.e. bright space) and the passage was open after about 20 seconds of observation time, and then latency time of the mice moving to the second chamber (i.e. dark space) was measured.
# Twenty-four hours after the passive avoidance learning, a main experiment was conducted on the drug administration groups 1-4 and controls 1-3. Latency time of the mice of each group moving their 4 legs into the dark space after 10 seconds of observation time from opening of the guillotine-shaped passage was measured up to 300 seconds. It means that the passive avoidance learning and memory are better if the latency time is longer.
# (§3) The passive avoidance test was conducted on the drug administration groups 1-4 and controls 1-3 in the same manner as the method explained above except that swertisin, which is one of the flavone-6-C-β-D-glucose derivatives prepared in Example 3, was dissolved in 10% Tween 80 and administered to the drug administration groups 1-4 in amounts of 1.25 mg/kg, 2.5 mg/kg, 5 mg/kg and 10 mg/kg respectively.
# as §3, with “Experimental Example 1-1” for “the method explained above”, “isoorientin,” for “swertisin,”
# (§4) The passive avoidance test was conducted on the drug administration groups 1-3 and controls 1-3 in the same manner as Experimental Example 1-1 except that a 70% ethanol extract of Swertia japonica prepared in Example 1, was dissolved in 10% Tween and administered to the drug administration groups 1-3 in amounts of 100 mg/kg, 200 mg/kg and 400 mg/kg respectively.
# as §4, with “pseudochinensis” for “japonica”, “2,” for “1,”, “Tween 80” for “Tween”
# [2] = tested on: model of memory impairment induced by scopolamine; experiment: Y-maze test in scopolamine-treated mice; assay type: in vivo, ICR mice; conditions: donepezil 5 mg/Kg (Control 1), scopolamine 1 mg/Kg i.p.
# Description: as §1, §2
# A Y-maze was prepared for the experiment. The Y-maze has 3 branches and each branch has 42 cm of length, 3 cm of width and 12 cm of height. Angle between any two arms is 120 degrees and the arms were made of black polyvinyl resin.
# The mice prepared in the above 1) were separated into 5 groups (10 mice per each group) comprised of drug administration groups 1 and 2, and controls 1 to 3.
# The swertisin prepared in Example 3 (8 mg) was dissolved in 4 mL of 10% Tween 80 (Polyoxyethylene sorbitan monooleate: Sigma, U.S.A.), and administered to the drug administration groups 1 and 2 in an amounts of 5 mg/Kg and 10 mg/Kg respectively. Meanwhile, 5 mg/Kg of donepezil was administered to the control 1, and 0.15 mL of 10% Tween 80 was administered to the controls 2 and 3 respectively.
# About 30 minutes later, 1 mg/Kg of scopolamine, which was dissolved in distilled water, was intraperitoneally administered to the drug administration groups 1 and 2, and controls 1 and 2 (Ebert, U. et al., Eur. J. Clin. Invest., 28, pp. 944-949, 1998), and 0.9% of saline solution was intraperitoneally administered to the control 3.
# After 30 minutes, mice of the drug administration groups 1 and 2, and the controls 1-3 were carefully located on each branches of the Y-maze, which was divided as A, B and C respectively, and let the mice move freely for 8 minutes, and then recorded branches where mice have entered. The entrance was recorded when the entire body (i.e. including the tail) has completely entered. It was also recorded when the mice entered again into the branch that the mice have entered before.
# One point was scored when the mouse sequentially entered into 3 different branches (actual alternation). Alternation behavior is defined as sequentially entering into every 3 branch, and it was converted into % via Equation 1 below (Sarter, M. et al., Psychopharmacology., 94, pp. 491-495, […]).
structure (smiles),measurement,setting,value
"COc1cc2c(cc1OC)C(=O)C(CC1CCN(Cc3ccccc3)CC1)C2 (stereo not drawn) [Donepezil, donepezil, reference compound]",Main Experiment,"[1]; Table 2, Control 1 (Donepezil), dose not given",138.7 ± 34.03 s
same,Passive Avoidance Learning,"[1]; Table 2, Control 1 (Donepezil), dose not given, learning trial",25.60 ± 10.83 s
same,Main Experiment,"[1]; Table 3, Control 1 (Donepezil), dose not given",127.8 ± 11.43 s
same,Passive Avoidance Learning,"[1]; Table 3, Control 1 (Donepezil), dose not given, learning trial",21.30 ± 4.964 s
same,Main Experiment,"[1]; Table 4, Control 1 (Donepezil), dose not given",169.6 ± 79.98
same,Passive Avoidance Learning,"[1]; Table 4, Control 1 (Donepezil), dose not given, learning trial",26.40 ± 16.23
same,Main Experiment,"[1]; Table 5, Control 1 (Donepezil), dose not given",159.6 ± 65.51
same,Passive Avoidance Learning,"[1]; Table 5, Control 1 (Donepezil), dose not given, learning trial",28.10 ± 19.02
same,Alternation Behavior (%),"[2]; Table 6, 8 minutes in Y-maze",61.49 ± 5.447%
same,Total Entry,"[2]; Table 7, total number of entry to each branch, 8 minutes",29.30 ± 4.296
O=c1cc(-c2ccc(O)c(O)c2)oc2cc(O)c([C@@H]3O[C@H](CO)[C@@H](O)[C@H](O)[C@H]3O)c(O)c12 [isoorientin],Main Experiment,"[1]; Table 3, isoorientin 1.25 mg/kg, up to 300 seconds",41.00 ± 7.988 s
same,Passive Avoidance Learning,"[1]; Table 3, isoorientin 1.25 mg/kg, latency in learning trial",43.60 ± 5.340 s
same,Main Experiment,"[1]; Table 3, isoorientin 2.5 mg/kg, up to 300 seconds",80.90 ± 19.44 s
same,Passive Avoidance Learning,"[1]; Table 3, isoorientin 2.5 mg/kg, latency in learning trial",40.00 ± 5.499 s
same,Main Experiment,"[1]; Table 3, isoorientin 5 mg/kg, up to 300 seconds",119.3 ± 73.43 s
same,Passive Avoidance Learning,"[1]; Table 3, isoorientin 5 mg/kg, latency in learning trial",35.20 ± 5.236 s
same,Main Experiment,"[1]; Table 3, isoorientin 10 mg/kg, up to 300 seconds",102.8 ± 15.89 s
same,Passive Avoidance Learning,"[1]; Table 3, isoorientin 10 mg/kg, latency in learning trial",26.80 ± 5.085 s
same,latency time extended compared to that of the control 2,[1]; isoorientin 2.5 mg/Kg,about 2 fold
same,latency time extended compared to that of the control 2,[1]; isoorientin 5 mg/Kg,about 3 fold
same,latency time extended compared to that of the control 2,[1]; isoorientin 10 mg/Kg,about 2.5 fold
